Here are results for 8 molecules from patent US20230002377A1, “THERAPEUTIC COMBINATIONS OF DRUGS AND METHODS OF USING THEM” (HARMONY BIOSCIENCES, LLC, priority 2020, published 2023).

The target in series [1] is Transporter, Dopamine (DAT) (Homo sapiens, UniProt Q01959). As to the kind of experiment: DAT radioligand binding ([125I] RTI-55), Eurofins. As to conditions: read-out: DAT, % inhibition, 100 nM compound.
Description: Source: Human recombinant CHO—S cells;
Incubation Time/Temp: 3 hours @ 4° C.;
(§2) Incubation Buffer: 50 mM Tris-HCl, pH 7.4, 100 mM NaCl, 1 μM Leupeptin, 10 μM PMSF;
Non-Specific Ligand: 10.0 μM Nomifensine;
Specific Binding: 90% (Historical Values);
(§3) Quantitation Method: Radioligand Binding;
Series [2] deals with Transporter, Norepinephrine (NET) (Homo sapiens, UniProt P23975). As to the kind of experiment: NET radioligand binding ([125I] RTI-55), Eurofins. As to conditions: for inhibition at 0.01 µM: read-out: NET, % inhibition, 10 nM compound; for inhibition at 0.1 µM: read-out: NET, % inhibition, 100 nM compound.
Sequence of Transporter, Norepinephrine (NET) (P23975 whole entry): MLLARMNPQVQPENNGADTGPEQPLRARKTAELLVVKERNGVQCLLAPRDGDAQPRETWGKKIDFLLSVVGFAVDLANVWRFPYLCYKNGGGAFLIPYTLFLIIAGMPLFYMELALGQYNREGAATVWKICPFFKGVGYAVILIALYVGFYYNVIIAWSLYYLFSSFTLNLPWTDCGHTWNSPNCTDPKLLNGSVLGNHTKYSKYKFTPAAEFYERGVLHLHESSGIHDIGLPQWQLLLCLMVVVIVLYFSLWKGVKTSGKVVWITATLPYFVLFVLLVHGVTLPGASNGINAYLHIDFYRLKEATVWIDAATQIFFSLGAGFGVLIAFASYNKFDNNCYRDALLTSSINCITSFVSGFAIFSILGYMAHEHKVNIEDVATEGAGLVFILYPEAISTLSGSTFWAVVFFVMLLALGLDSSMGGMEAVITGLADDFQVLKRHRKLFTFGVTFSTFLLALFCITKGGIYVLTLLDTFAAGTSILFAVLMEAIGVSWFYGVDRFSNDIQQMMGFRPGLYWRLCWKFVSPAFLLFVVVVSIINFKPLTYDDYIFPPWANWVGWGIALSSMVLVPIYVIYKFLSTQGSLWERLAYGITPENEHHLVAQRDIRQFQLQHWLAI
Description: Source: Human recombinant MDCK cells;
Incubation Time/Temp: 3 hours @ 4° C.;
as §2
Non-Specific Ligand: 10.0 μM Desipramine;
as §3
Series [3] in a line: Metabolite level of Formula II in phase I clinical trial. As to conditions: healthy volunteers. The series is classed as in vivo, human. From the text: (§1) By substituting the hydrogens with deuterium on the carbon(s) adjacent to the nitrogen which is acetylated (see for example, Examples 5 to 7), acetylation process can be slowed down to reduce the formation of this metabolite.

Series [4] concerns the target MCHR1 (Homo sapiens, UniProt Q99705). As to the kind of experiment: Contribution of N-acetyl metabolite to MCHR1 antagonism.
Description: as §1

Series [5] deals with T1, DAT (Homo sapiens, UniProt Q01959).
T1 construct: host or cells: living brain (PET)
T1 sequence (Q01959 whole entry): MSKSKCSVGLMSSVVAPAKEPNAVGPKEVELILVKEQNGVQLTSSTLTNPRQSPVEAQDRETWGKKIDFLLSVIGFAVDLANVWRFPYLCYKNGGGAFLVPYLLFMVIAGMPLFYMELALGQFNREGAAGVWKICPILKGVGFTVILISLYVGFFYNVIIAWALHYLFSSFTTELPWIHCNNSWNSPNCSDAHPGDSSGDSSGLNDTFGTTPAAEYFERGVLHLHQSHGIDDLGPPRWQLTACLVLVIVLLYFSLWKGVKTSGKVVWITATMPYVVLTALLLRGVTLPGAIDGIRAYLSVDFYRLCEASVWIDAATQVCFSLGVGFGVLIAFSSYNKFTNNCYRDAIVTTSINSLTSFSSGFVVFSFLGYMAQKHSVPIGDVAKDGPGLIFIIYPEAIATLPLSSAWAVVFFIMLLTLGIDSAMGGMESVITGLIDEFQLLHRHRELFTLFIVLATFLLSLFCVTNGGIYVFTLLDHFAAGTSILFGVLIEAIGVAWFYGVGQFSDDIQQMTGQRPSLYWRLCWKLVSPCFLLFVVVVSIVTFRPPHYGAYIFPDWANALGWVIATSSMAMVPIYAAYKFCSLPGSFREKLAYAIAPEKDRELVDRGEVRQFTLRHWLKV
To be noted: approved monoamine reuptake inhibitors at efficacious doses, cited from earlier work.

Series [6] concerns the target NET (Homo sapiens, UniProt P23975). To be noted: at efficacious doses; cited from earlier work.
In series [7] the test system is PWS patients. As to conditions: standard mg/day dosing, cited from earlier work.

Sequence of Transporter, Dopamine (DAT) (Q01959 whole entry): as above
Sequence of NET (P23975 whole entry): as the sequence (P23975 whole entry) above
Sequence of MCHR1 (Q99705 whole entry, species assumed): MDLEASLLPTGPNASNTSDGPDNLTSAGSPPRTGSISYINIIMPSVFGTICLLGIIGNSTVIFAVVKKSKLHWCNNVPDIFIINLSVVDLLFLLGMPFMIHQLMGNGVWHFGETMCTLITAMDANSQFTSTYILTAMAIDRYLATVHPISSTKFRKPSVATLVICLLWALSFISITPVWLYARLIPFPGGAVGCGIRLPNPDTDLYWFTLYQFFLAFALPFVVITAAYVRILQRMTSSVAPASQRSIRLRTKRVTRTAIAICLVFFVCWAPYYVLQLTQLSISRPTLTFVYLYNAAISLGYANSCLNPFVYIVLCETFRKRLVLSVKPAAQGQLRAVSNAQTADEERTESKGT

With `[2H]C1([2H])NC([2H])([2H])C([2H])(c2ccc(Cl)c(Cl)c2)c2ccc(-c3ccc4ncnn4c3)cc21` (single isomer, unassigned) [Compound 8A, 7-([1,2,4]triazolo[1,5-a]pyridin-6-yl)-4-(3,4-dichlorophenyl)-1,2,3,4-tetrahydroisoquinoline-1,1,3,3,4-d5], the inhibition at 0.1 µM in series [1] came out at 93%; in series [2] it was 86%. In series [2], the inhibition at 0.01 µM turned out to be 29%.
With `[2H]C1([2H])NCC(c2ccc(Cl)c(Cl)c2)c2ccc(-c3ccc4ncnn4c3)cc21` (single isomer, unassigned) [Compound 12A, 7-([1,2,4]triazolo[1,5-a]pyridin-6-yl)-4-(3,4-dichlorophenyl)-1,2,3,4-tetrahydroisoquinoline-1,1-d2], in series [2], the inhibition at 0.01 µM amounted to 34% and the inhibition at 0.1 µM is 79%.
Regarding `[2H]C1([2H])NCc2cc(-c3ccc4ncnn4c3)ccc2C1([2H])c1ccc(Cl)c(Cl)c1` (single isomer, unassigned) [Compound 16B, 7-([1,2,4]triazolo[1,5-a]pyridin-6-yl)-4-(3,4-dichlorophenyl)-1,2,3,4-tetrahydroisoquinoline-3,3,4-d3], the inhibition at 0.1 µM in series [1] was found to be 76%. Moreover, in series [2], the inhibition at 0.01 µM is 49% and the inhibition at 0.1 µM was determined as 72%.
Consider `CC(=O)N1CCc2c(c3ccc(-n4ccc(OCc5ccc(F)cn5)cc4=O)cc3n2C)C1` [1-(2-acetyl-5-methyl-2,3,4,5-tetrahydro-1H-pyrido[4,3-b]indol-7-yl)-4-((5-fluoropyridin-2-yl)methoxy)pyridin-2(1H)-one], for which, in series [3], the “amount of metabolite comparing to parent compound Formula II” value is recorded as “very significant”. The “contribution to the pharmacology of MCHR1 antagonism” value in series [4] is “does not contribute to the pharmacology of MCHR1 antagonism”.
As to `CC(NC(C)(C)C)C(=O)c1cccc(Cl)c1` (stereo not shown) [Bupropion, bupropion], the “Lowest Occupancy DAT” value in series [5] (lowest reported) is given as 14% (Bupropion).
On to `COC(=O)C(c1ccccc1)C1CCCCN1` (stereo not shown) [Methylphenidate, methylphenidate], for which the “Highest Occupancy DAT” value in series [5] (highest reported) is listed as 74%.
Turning to `COc1ccc(C(CN(C)C)C2(O)CCCCC2)cc1` (stereo not shown) [Venlafaxine, venlafaxine], in series [6], the NET occupancy is recorded as 8-61%.
Take `CCOC[C@@H]1[C@@H](c2ccc(Cl)c(Cl)c2)C[C@@H]2CC[C@H]1N2C` [tesofensine]: in series [7] (PWS patients), the “hyperphagia in patients with the appropriate plasma drug level” value is reported as “hyperphagia controlled completely” and the “patients with plasma drug levels exceeding the safety levels who discontinued the treatment due to adverse events” value was 2/3. For the same molecule, the “efficacy after lowering the dosing for all patients” value in series [7] (lowered dose) is recorded as “no efficacy”.

As a reminder, the inhibition is the relative decrease from the control value, in per cent.
